# Measurements published in patent US8906933B2, “Dihydropyrimidin-2(1H)-one compounds as neurokinin-3 receptor antagonists” (N30 Pharmaceuticals, Inc., priority 2010, dated 2014).
# Biological target: T1, human NK3 receptor (Homo sapiens (Human), UniProt P29371)
# Assay: Human NK3 receptor binding assay at 1 uM
# Settings: 1 μM test compound; [3H]SR142801, CHO cell membranes; read-out: percent inhibition at 1 μM
# Procedure: Antagonist activity was evaluated at a concentration of 1 μM for a representative subset of test compounds, and the results were expressed as the percent inhibition at that concentration.
# Each test compound was evaluated at a single concentration of 1 μM. […] The results are expressed as a percent of control specific binding ((measured specific binding/control specific binding)×100) obtained in the presence of the test compounds.
# T1 sequence (P29371 whole entry): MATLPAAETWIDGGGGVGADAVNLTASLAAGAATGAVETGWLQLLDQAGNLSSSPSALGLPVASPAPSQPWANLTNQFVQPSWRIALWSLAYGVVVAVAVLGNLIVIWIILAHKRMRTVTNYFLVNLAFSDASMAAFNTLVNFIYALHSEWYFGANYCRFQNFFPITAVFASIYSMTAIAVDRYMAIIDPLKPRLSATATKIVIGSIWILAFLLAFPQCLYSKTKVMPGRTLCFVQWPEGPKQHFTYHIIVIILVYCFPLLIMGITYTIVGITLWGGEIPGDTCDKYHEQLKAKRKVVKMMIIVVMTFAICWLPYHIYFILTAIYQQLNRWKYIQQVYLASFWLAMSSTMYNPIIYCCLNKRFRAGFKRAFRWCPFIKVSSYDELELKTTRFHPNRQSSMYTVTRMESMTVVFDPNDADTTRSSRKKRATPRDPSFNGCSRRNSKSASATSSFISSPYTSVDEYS
row,SMILES,inhibition at 1 µM [%]
1,"CCOc1cc(C2NC(=O)NC(c3ccccc3)=C2c2ccccc2C)cc([N+](=O)[O-])c1O (stereo not shown) [4-(3-ethoxy-4-hydroxy-5-nitrophenyl)-6-phenyl-5-o-tolyl-3,4-dihydropyrimidin-2(1H)-one]",> 50
2,"CCOc1cc(C2NC(=O)NC(c3ccccc3)=C2c2ccc(Cl)cc2)cc([N+](=O)[O-])c1O (stereo not shown) [5-(4-chlorophenyl)-4-(3-ethoxy-4-hydroxy-5-nitrophenyl)-6-phenyl-3,4-dihydropyrimidin-2(1H)-one]",> 50
3,"N#Cc1cccc(C2NC(=O)NC(c3ccccc3)=C2c2ccccc2)c1O (stereo not shown) [2-hydroxy-3-(2-oxo-5,6-diphenyl-1,2,3,4-tetrahydropyrimidin-4-yl)benzonitrile]",> 50
4,"CCOc1cc(C2NC(=O)NC(c3cc(F)cc(F)c3)=C2c2ccccc2)cc([N+](=O)[O-])c1O (stereo not shown) [6-(3,5-difluorophenyl)-4-(3-ethoxy-4-hydroxy-5-nitrophenyl)-5-phenyl-3,4-dihydropyrimidin-2(1H)-one]",> 50
5,"CCOc1cc(C2NC(=O)NC(c3ccccc3)=C2c2cccc(CC)c2)cc([N+](=O)[O-])c1O (stereo not shown) [4-(3-ethoxy-4-hydroxy-5-nitrophenyl)-5-(3-ethylphenyl)-6-phenyl-3,4-dihydropyrimidin-2(1H)-one]",> 50
6,"CCOc1cc(C2NC(=O)NC(c3ccc(Cl)c(F)c3)=C2c2ccccc2)cc([N+](=O)[O-])c1O (stereo not shown) [6-(4-chloro-3-fluorophenyl)-4-(3-ethoxy-4-hydroxy-5-nitrophenyl)-5-phenyl-3,4-dihydropyrimidin-2(1H)-one]",> 50
7,"CCOc1cc(C2NC(=O)NC(c3ccccc3F)=C2c2ccccc2)cc([N+](=O)[O-])c1O (stereo not shown) [4-(3-ethoxy-4-hydroxy-5-nitrophenyl)-6-(2-fluorophenyl)-5-phenyl-3,4-dihydropyrimidin-2(1H)-one]",> 50
8,"CCOc1cc(C2NC(=O)NC(c3ccc(C(F)(F)F)cc3)=C2c2ccccc2)cc([N+](=O)[O-])c1O (stereo not shown) [4-(3-ethoxy-4-hydroxy-5-nitrophenyl)-5-phenyl-6-(4-(trifluoromethyl)phenyl)-3,4-dihydropyrimidin-2(1H)-one]",> 50
9,"CCOc1cc(C2NC(=O)NC(c3cccc(Cl)c3)=C2c2ccccc2)cc([N+](=O)[O-])c1O (stereo not shown) [6-(3-chlorophenyl)-4-(3-ethoxy-4-hydroxy-5-nitrophenyl)-5-phenyl-3,4-dihydropyrimidin-2(1H)-one]",> 50
10,"CCOc1cc(C2NC(=O)NC(c3ccccc3)=C2c2ccccc2)cc(Br)c1O (stereo not shown) [4-(3-bromo-5-ethoxy-4-hydroxyphenyl)-5,6-diphenyl-3,4-dihydropyrimidin-2(1H)-one]",> 50
11,"CCOc1cc(C2NC(=O)NC(c3ccc(F)cc3)=C2c2ccccc2)cc([N+](=O)[O-])c1O (stereo not shown) [4-(3-ethoxy-4-hydroxy-5-nitrophenyl)-6-(4-fluorophenyl)-5-phenyl-3,4-dihydropyrimidin-2(1H)-one]",> 50
12,"CCOc1cc(C2NC(=O)NC(c3ccccc3)=C2c2ccc(F)c(F)c2)cc([N+](=O)[O-])c1O (stereo not shown) [5-(3,4-difluorophenyl)-4-(3-ethoxy-4-hydroxy-5-nitrophenyl)-6-phenyl-3,4-dihydropyrimidin-2(1H)-one]",> 50
13,"O=C1NC(c2ccccc2)=C(c2ccccc2)C(c2ccc(O)c([N+](=O)[O-])c2)N1 (stereo not shown) [4-(4-hydroxy-3-nitrophenyl)-5,6-diphenyl-3,4-dihydropyrimidin-2(1H)-one]",> 50
14,"CCOc1cc(C2NC(=O)NC(c3ccccc3)=C2c2ccc(C)cc2)cc([N+](=O)[O-])c1O (stereo not shown) [4-(3-ethoxy-4-hydroxy-5-nitrophenyl)-6-phenyl-5-p-tolyl-3,4-dihydropyrimidin-2(1H)-one]",> 50
15,"CCOc1cc(C2NC(=O)NC(c3ccccc3)=C2c2cccc(F)c2)cc([N+](=O)[O-])c1O (stereo not shown) [4-(3-ethoxy-4-hydroxy-5-nitrophenyl)-5-(3-fluorophenyl)-6-phenyl-3,4-dihydropyrimidin-2(1H)-one]",> 50
16,"CCOc1cc(C2NC(=O)NC(c3ccc(F)c(Cl)c3)=C2c2ccccc2)cc([N+](=O)[O-])c1O (stereo not shown) [6-(3-chloro-4-fluorophenyl)-4-(3-ethoxy-4-hydroxy-5-nitrophenyl)-5-phenyl-3,4-dihydropyrimidin-2(1H)-one]",> 50
17,"CCOc1cc(C2NC(=O)NC(c3ccccc3)=C2c2ccccc2)cc(F)c1O (stereo not shown) [4-(3-ethoxy-5-fluoro-4-hydroxyphenyl)-5,6-diphenyl-3,4-dihydropyrimidin-2(1H)-one]",> 50
18,"CCOc1cc(C2NC(=O)NC(C3CCCC3)=C2c2ccccc2)cc([N+](=O)[O-])c1O (stereo not shown) [6-cyclopentyl-4-(3-ethoxy-4-hydroxy-5-nitrophenyl)-5-phenyl-3,4-dihydropyrimidin-2(1H)-one]",> 50
19,"CCOc1cc(C2NC(=O)NC(c3ccc(F)c(F)c3)=C2c2ccccc2)cc([N+](=O)[O-])c1O (stereo not shown) [6-(3,4-difluorophenyl)-4-(3-ethoxy-4-hydroxy-5-nitrophenyl)-5-phenyl-3,4-dihydropyrimidin-2(1H)-one]",> 50
20,"CCOc1cc(C2NC(=O)NC(c3ccccc3)=C2c2ccccc2)cc2[nH]c(=O)oc12 (stereo not shown) [7-ethoxy-5-(2-oxo-5,6-diphenyl-1,2,3,4-tetrahydropyrimidin-4-yl)benzo[d]oxazol-2(3H)-one]",> 50
21,"CCOc1cc(C2NC(=O)NC(c3ccccc3)=C2c2ccccc2Cl)cc([N+](=O)[O-])c1O (stereo not shown) [5-(2-chlorophenyl)-4-(3-ethoxy-4-hydroxy-5-nitrophenyl)-6-phenyl-3,4-dihydropyrimidin-2(1H)-one]",> 50
22,"CCOc1cc(C2NC(=O)NC(c3ccc(Cl)cc3)=C2c2ccccc2)cc([N+](=O)[O-])c1O (stereo not shown) [6-(4-chlorophenyl)-4-(3-ethoxy-4-hydroxy-5-nitrophenyl)-5-phenyl-3,4-dihydropyrimidin-2(1H)-one]",> 50

# Biological target: T1, human NK3 receptor
# Assay: Human NK3 receptor binding assay at 10 μM
# Settings: 10 μM test compound; [3H]SR142801, CHO cell membranes; read-out: percent inhibition at 10 μM
# Procedure: Antagonist activity was evaluated at a concentration of 10 μM for a representative subset of test compounds, and the results were expressed as the percent inhibition at that concentration.
# Each test compound was evaluated at a single concentration of 10 μM. […] The results are expressed as a percent of control specific binding ((measured specific binding/control specific binding)×100) obtained in the presence of the test compounds.
row,SMILES,inhibition at 10 µM [%]
1,"CCOc1cc(C2NC(=O)NC(c3ccsc3)=C2c2ccccc2)cc([N+](=O)[O-])c1O (stereo not shown) [4-(3-ethoxy-4-hydroxy-5-nitrophenyl)-5-phenyl-6-(thiophen-3-yl)-3,4-dihydropyrimidin-2(1H)-one]",> 50
2,"CCOc1cc(C2NC(=O)NC(c3ccn(C)n3)=C2c2ccsc2)cc([N+](=O)[O-])c1O (stereo not shown) [4-(3-ethoxy-4-hydroxy-5-nitrophenyl)-6-(1-methyl-1H-pyrazol-3-yl)-5-(thiophen-3-yl)-3,4-dihydropyrimidin-2(1H)-one]",> 50
3,"CCOc1cc(C2NC(=O)NC(c3cnn(C)c3)=C2c2ccsc2)cc([N+](=O)[O-])c1O (stereo not shown) [4-(3-ethoxy-4-hydroxy-5-nitrophenyl)-6-(1-methyl-1H-pyrazol-4-yl)-5-(thiophen-3-yl)-3,4-dihydropyrimidin-2(1H)-one]",> 50
4,"CCOc1cc(C2NC(=O)NC(c3ccc(Cl)c(F)c3)=C2c2ccccc2)cc([N+](=O)[O-])c1O (stereo not shown) [6-(4-chloro-3-fluorophenyl)-4-(3-ethoxy-4-hydroxy-5-nitrophenyl)-5-phenyl-3,4-dihydropyrimidin-2(1H)-one]",> 50
5,"CCOc1cc(C2NC(=O)NC(c3cccs3)=C2c2ccccc2)cc([N+](=O)[O-])c1O (stereo not shown) [4-(3-ethoxy-4-hydroxy-5-nitrophenyl)-5-phenyl-6-(thiophen-2-yl)-3,4-dihydropyrimidin-2(1H)-one]",> 50
6,"CCOc1cc(C2NC(=O)NC(c3cccnc3)=C2c2ccsc2)cc([N+](=O)[O-])c1O (stereo not shown) [4-(3-ethoxy-4-hydroxy-5-nitrophenyl)-6-(pyridin-3-yl)-5-(thiophen-3-yl)-3,4-dihydropyrimidin-2(1H)-one]",> 50
7,"CCOc1cc(C2NC(=O)NC(c3cccnc3)=C2c2ccccc2)cc([N+](=O)[O-])c1O (stereo not shown) [4-(3-ethoxy-4-hydroxy-5-nitrophenyl)-5-phenyl-6-(pyridin-3-yl)-3,4-dihydropyrimidin-2(1H)-one]",> 50
8,"CCOc1cc(C2NC(=O)NC(c3ccoc3)=C2c2ccccc2)cc([N+](=O)[O-])c1O (stereo not shown) [4-(3-ethoxy-4-hydroxy-5-nitrophenyl)-6-(furan-3-yl)-5-phenyl-3,4-dihydropyrimidin-2(1H)-one]",> 50
9,"CCOc1cc(C2NC(=O)NC(c3ccccc3)=C2c2cccs2)cc([N+](=O)[O-])c1O (stereo not shown) [4-(3-ethoxy-4-hydroxy-5-nitrophenyl)-6-phenyl-5-(thiophen-2-yl)-3,4-dihydropyrimidin-2(1H)-one]",> 50
10,"CCOc1cc(C2NC(=O)NC(c3ccccc3)=C2c2cccc(C#N)c2)cc([N+](=O)[O-])c1O (stereo not shown) [3-(4-(3-ethoxy-4-hydroxy-5-nitrophenyl)-2-oxo-6-phenyl-1,2,3,4-tetrahydropyrimidin-5-yl)benzonitrile]",> 50
11,"CCOc1cc(C2NC(=O)NC(c3ccccc3)=C2c2ccsc2)cc([N+](=O)[O-])c1O (stereo not shown) [4-(3-ethoxy-4-hydroxy-5-nitrophenyl)-6-phenyl-5-(thiophen-3-yl)-3,4-dihydropyrimidin-2(1H)-one]",> 50
12,"O=C1NC(c2ccccc2)=C(c2ccccc2)C(c2cc(Cl)c(O)c([N+](=O)[O-])c2)N1 (stereo not shown) [4-(3-chloro-4-hydroxy-5-nitrophenyl)-5,6-diphenyl-3,4-dihydropyrimidin-2(1H)-one]",> 50
13,"CCOc1cc(C2NC(=O)NC(c3ccccc3)=C2c2ccccc2)cc([N+](=O)[O-])c1O (stereo not shown) [4-(3-ethoxy-4-hydroxy-5-nitrophenyl)-5,6-diphenyl-3,4-dihydropyrimidin-2(1H)-one]",> 50

# Same assay, conditions: read-out: NK3, % inhibition @ 10 μM; 10 μM test compound; [3H]SR142801, CHO cell membranes
row,SMILES,inhibition at 10 µM [%]
1,"CCOc1cc(C2NC(=O)NC(c3ccn(C)n3)=C2c2ccsc2)cc([N+](=O)[O-])c1O (stereo not shown) [4-(3-ethoxy-4-hydroxy-5-nitrophenyl)-6-(1-methyl-1H-pyrazol-3-yl)-5-(thiophen-3-yl)-3,4-dihydropyrimidin-2(1H)-one]",61
2,"CCOc1cc(C2NC(=O)NC(c3cccnc3)=C2c2ccsc2)cc([N+](=O)[O-])c1O (stereo not shown) [4-(3-ethoxy-4-hydroxy-5-nitrophenyl)-6-(pyridin-3-yl)-5-(thiophen-3-yl)-3,4-dihydropyrimidin-2(1H)-one]",63
3,"CCOc1cc(C2NC(=O)NC(c3cccnc3)=C2c2ccccc2)cc([N+](=O)[O-])c1O (stereo not shown) [4-(3-ethoxy-4-hydroxy-5-nitrophenyl)-5-phenyl-6-(pyridin-3-yl)-3,4-dihydropyrimidin-2(1H)-one]",92
4,"CCOc1cc(C2NC(=O)NC(c3ccccc3)=C2c2ccsc2)cc([N+](=O)[O-])c1O (stereo not shown) [4-(3-ethoxy-4-hydroxy-5-nitrophenyl)-6-phenyl-5-(thiophen-3-yl)-3,4-dihydropyrimidin-2(1H)-one]",97
5,"CCOc1cc(C2NC(=O)NC(c3ccccc3)=C2c2ccccc2)cc([N+](=O)[O-])c1O (stereo not shown) [4-(3-ethoxy-4-hydroxy-5-nitrophenyl)-5,6-diphenyl-3,4-dihydropyrimidin-2(1H)-one]",88
